This is an account of results in patent US9375438B2, “Inhibitors of NCCa-ATP channels for therapy” (University of Maryland, Baltimore, priority 2007, dated 2016).

Data set [1] relates to rats with hemi-cervical spinal cord contusion (SCI). The data set can be described thus: SCI model: extravasated blood in cord (tissue blood). Format: in vivo, rat. Particulars: for PHN: following SCI (summary). The method, then: (§1) SCI injury model. This study was performed in accordance with the guidelines of the Institutional Animal Care and Use Committee. Adult female Long-Evans rats (275-350 gm) were anesthetized (Ketamine, 60 mg/kg plus Xylazine, 7.5 mg/kg, i.p.). The dura at C4-5 was exposed via a left hemilaminectomy. A hemi-cervical spinal cord contusion was created using a blunt force impactor (1.3-mm impactor head driven by a 10 gm weight dropped vertically 25 mm) (Soblosky et al., 2001; Gensel et al., 2006). After SCI, animals were given 10 ml of glucose-free normal saline s.q. Rectal temperature was maintained at ˜37° C. using a servo-controlled warming blanket.
(§2) For in vivo gene suppression of SUR1, we used oligodeoxynucleotides that were phosphorothioated at 4 distal bonds to protect against endogenous nucleases (35).
Tissue blood. Rats were sacrificed at various times after SCI (n=5-11 rats/group), were perfused with heparinized saline to remove intravascular blood, and 5-mm segments of cord encompassing the lesion were homogenized and processed as described (Choudhri et al., 1997).

The test system is the same in data set [2]. The data set can be described thus: SCI model: lesion size. Particulars: following SCI; compared to controls (summary). Format: in vivo, rat. The procedure:
as §1, with “blanket. Blood gases and serum glucose 10-15 min post-SCI were: pO2, 95±6 mm Hg; pCO2, 46±3 mm Hg; pH, 7.33±0.01; glucose 258±17 mg/dl in controls and pO2, 96±7 mm Hg; pCO2, 45±2 mm Hg; pH, 7.37±0.01; glucose 242±14 mg/dl in glibenclamide-treated animals.” for “blanket.”
Drug delivery. […] During the course of the project, slightly different formulations of drug were used, with the best results obtained using stock solutions made by placing 50 mg (or 25 mg) of drug into 10 ml DMSO, and infusion solutions made by placing 400 μl (or 800 μl) stock into 4.6 ml (or 4.2 ml) unbuffered saline (0.9% NaCl) and adjusting the pH to ˜8.5 using 0.1 N NaOH.
Lesion size. At 7 d post-SCI, cords were paraffin sectioned and stained with H&E. Lesion volumes were calculated from lesion areas measured on serial sections every 250 μm.
(§3) Immunohistochemistry. Cryosections were immunolabeled (Chen et al., 2003; Simard et al., 2006) using primary antibodies directed against SUR1 (Santa Cruz, C-16; 1:200; 1 h at RT, 48 h at 4° C.), SUR2 (Santa Cruz, H-80; 1:200; 1 h at RT, 48 h at 4° C.), GFAP (Sigma, C-9205; 1:500), and vimentin (Sigma, monoclonal CY3 conjugated; 1:100). Quantitative immunofluorescence was performed as described (Gerzanich et al., 2003).

Data set [3] shares this test system. The data set can be described thus: SCI model: neurobehavioral assessment (inclined plane, paw placement, rearing). It counts as in vivo, rat. The method, then:
as §1, §2
Neurobehavioral Assessment. All measurements were performed by blinded evaluators. Performance on the inclined plane was evaluated as described (Rivlin and Tator, 1977). To assess paw placement and vertical exploration (rearing) (Nikulina et al., 2004) animals were videotaped while in a translucent cylinder (19×20 cm). Rearing was quantified as the number of seconds spent with both front paws elevated above shoulder-height during a 3-min period of observation.

Data set [4] deals with SUR1. The data set can be described thus: SUR1 knock-down in gliotic capsule (gelatin sponge implant), Western blot and astrocyte patch clamp. It counts as in vivo, rat. Particulars: vs Scr-ODN. The procedure:
To validate the antisense strategy, it was first implemented in the model that was originally used for the discovery of the NCCa-ATP channel, wherein a gelatin sponge is implanted into the parietal lobe to stimulate formation of a gliotic capsule (Chen and Simard, 2001). Here, animals were also fitted with mini-osmotic pumps that delivered oligodeoxynucleotides (ODN), either antisense (AS) or scrambled (Scr), continuously for 7 d into the injury site.
SUR1 knock-down in astrocytes was performed in triplicates by implanting rats with gelatin sponges in the parietal lobe to induce formation of a gliotic capsule containing reactive astrocytes that express the SUR1-regulated NCCa-ATP channel (Chen and Simard, 2001; Chen et al., 2003). At the same time, they were implanted with mini-osmotic pumps (Alzet, model 2002; 14-day pump) placed in the dorsal thoracolumbar region that contained ODN (711 μg/ml delivered @ 0.5 μl/h, yielding 1500 picomoles/day), with the delivery catheter placed directly into the site of the gelatin sponge implant in the brain. Animals were infused with Src-ODN or AS-ODN, as above but not phosphorothioated. After 10-14 days, the gelatin sponge plus encapsulating gliotic tissues were harvested and processed either for Western immunoblots or to obtain fresh reactive astrocytes for patch clamp electrophysiology. […]

Data set [5] has as its system SUR1. The data set can be described thus: SCI model: SUR1 immunolabeling of cord after i.v. ODN. Format: in vivo, rat. The method, then: as §1, with “blanket. Blood gases and serum glucose 10-15 min post-SCI were: pO2, 95±6 mm Hg; pCO2, 46±3 mm Hg; pH, 7.33±0.01; glucose 258±17 mg/dl in controls and pO2, 96±7 mm Hg; pCO2, 45±2 mm Hg; pH, 7.37±0.01; glucose 242±14 mg/dl in glibenclamide-treated animals.” for “blanket.”
For in vivo gene suppression of SUR1, we used oligodeoxynucleotides that were phosphorothioated at 4 distal bonds to protect against endogenous nucleases (35). Within a few min of SCI, mini-osmotic pumps (Alzet 2002, 0.5 μl/h; Durect Corporation) with jugular vein catheters were implanted that delivered either scrambled sequence ODN (Scr-ODN) (5′-[…]-3′; SEQ ID NO:1) or antisense ODN (AS-ODN) (5′-[…]-3′; SEQ ID NO:2) (Yokoshiki et al., 1999) in PBS at a rate of 1 mg/rat/24 h.
as §3

Data set [6] addresses SUR1-regulated NCCa-ATP channels (Rattus norvegicus, UniProt Q09429). The following applies: read-out: EC50, block of NCCa-ATP channel; cited from earlier work.
The target in data set [7] is T1, SUR1-regulated NCCa-ATP channel in human aortic endothelial cells (Homo sapiens, UniProt Q09428).
T1 construct: host or cells: human aortic endothelial cells cultured under hypoxia
The data set can be described thus: Perforated-patch whole-cell recording of endothelial cells, channel activation by diazoxide. Format: cell-based. The procedure:
Patch clamp of endothelial cells was performed using a nystatin-perforated patch technique, to maintain the metabolic integrity of the cells. The identity of the activated channel can be assessed by measurement of the “reversal potential”, the potential at which an ion channel current reverses from inward to outward. With physiologically relevant concentrations of ions intracellularly and extracellularly (high potassium inside, high sodium outside), the reversal potential can unambiguously distinguish between a K^+ channel current such as KATP, which reverses negative to −50 mV and a non-selective cation channel current such as NCCa-ATP, which reverses near 0 mV.
Cell culture. Endothelial cell cultures from human brain microvessels, human aorta (ScienCell Research Laboratories), and murine brain microvessels (bEnd.3; ATCC), were grown at low density using media and supplements recommended by suppliers.

Data set [8] concerns the target native and recombinant β-cell KATP channels (Homo sapiens, UniProt Q09428). Particulars: read-out: IC50, block of native and recombinant β-cell KATP channels; cited from earlier work.
Where [9] appears, read: 1 d post-SCI, ODN i.v., vs Scr-ODN.
The mark [10] stands for this setting: repaglinide 200 ng/h s.q., n=3-8/group.

pEC50, pIC50: −log10 of the molar value.

T1 sequence (Q09428 whole entry): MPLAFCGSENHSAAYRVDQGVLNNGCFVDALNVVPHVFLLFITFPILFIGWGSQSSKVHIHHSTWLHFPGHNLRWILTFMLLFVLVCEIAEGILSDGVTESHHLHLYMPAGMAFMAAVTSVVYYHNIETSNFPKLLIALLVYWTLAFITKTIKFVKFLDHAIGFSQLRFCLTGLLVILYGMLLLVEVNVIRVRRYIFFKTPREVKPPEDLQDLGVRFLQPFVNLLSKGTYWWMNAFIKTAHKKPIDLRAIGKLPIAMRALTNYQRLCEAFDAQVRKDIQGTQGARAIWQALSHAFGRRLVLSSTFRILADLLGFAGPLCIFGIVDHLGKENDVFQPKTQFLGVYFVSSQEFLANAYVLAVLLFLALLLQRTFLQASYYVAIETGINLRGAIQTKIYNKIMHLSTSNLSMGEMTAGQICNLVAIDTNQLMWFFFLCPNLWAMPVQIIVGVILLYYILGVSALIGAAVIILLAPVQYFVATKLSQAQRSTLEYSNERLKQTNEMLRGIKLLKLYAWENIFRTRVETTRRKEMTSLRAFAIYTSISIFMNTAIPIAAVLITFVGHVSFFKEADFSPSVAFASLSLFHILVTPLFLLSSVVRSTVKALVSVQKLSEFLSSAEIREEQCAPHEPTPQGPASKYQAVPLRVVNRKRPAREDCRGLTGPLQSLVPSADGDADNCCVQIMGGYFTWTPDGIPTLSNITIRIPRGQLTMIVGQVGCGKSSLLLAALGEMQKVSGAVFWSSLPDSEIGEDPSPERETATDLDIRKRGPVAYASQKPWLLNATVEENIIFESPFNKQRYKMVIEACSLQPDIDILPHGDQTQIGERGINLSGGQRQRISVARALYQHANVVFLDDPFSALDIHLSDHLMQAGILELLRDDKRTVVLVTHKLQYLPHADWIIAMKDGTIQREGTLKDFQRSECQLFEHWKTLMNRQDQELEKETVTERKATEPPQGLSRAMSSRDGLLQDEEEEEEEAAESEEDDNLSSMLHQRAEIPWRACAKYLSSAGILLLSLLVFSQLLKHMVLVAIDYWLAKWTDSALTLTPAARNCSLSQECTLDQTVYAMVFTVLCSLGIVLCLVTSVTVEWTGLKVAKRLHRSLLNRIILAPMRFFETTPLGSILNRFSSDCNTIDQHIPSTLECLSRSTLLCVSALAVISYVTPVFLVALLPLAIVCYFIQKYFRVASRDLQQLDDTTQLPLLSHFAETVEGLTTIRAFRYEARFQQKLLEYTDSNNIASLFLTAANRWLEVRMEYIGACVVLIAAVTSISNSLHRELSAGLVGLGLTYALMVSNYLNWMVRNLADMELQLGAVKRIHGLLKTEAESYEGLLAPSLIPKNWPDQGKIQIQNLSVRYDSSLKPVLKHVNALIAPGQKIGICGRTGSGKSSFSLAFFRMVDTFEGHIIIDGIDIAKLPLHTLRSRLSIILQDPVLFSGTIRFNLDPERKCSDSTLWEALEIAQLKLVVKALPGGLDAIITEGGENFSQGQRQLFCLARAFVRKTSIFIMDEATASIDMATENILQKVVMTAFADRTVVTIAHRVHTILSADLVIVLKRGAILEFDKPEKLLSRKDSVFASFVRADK
T1 sequence (Q8TD43 whole entry partner): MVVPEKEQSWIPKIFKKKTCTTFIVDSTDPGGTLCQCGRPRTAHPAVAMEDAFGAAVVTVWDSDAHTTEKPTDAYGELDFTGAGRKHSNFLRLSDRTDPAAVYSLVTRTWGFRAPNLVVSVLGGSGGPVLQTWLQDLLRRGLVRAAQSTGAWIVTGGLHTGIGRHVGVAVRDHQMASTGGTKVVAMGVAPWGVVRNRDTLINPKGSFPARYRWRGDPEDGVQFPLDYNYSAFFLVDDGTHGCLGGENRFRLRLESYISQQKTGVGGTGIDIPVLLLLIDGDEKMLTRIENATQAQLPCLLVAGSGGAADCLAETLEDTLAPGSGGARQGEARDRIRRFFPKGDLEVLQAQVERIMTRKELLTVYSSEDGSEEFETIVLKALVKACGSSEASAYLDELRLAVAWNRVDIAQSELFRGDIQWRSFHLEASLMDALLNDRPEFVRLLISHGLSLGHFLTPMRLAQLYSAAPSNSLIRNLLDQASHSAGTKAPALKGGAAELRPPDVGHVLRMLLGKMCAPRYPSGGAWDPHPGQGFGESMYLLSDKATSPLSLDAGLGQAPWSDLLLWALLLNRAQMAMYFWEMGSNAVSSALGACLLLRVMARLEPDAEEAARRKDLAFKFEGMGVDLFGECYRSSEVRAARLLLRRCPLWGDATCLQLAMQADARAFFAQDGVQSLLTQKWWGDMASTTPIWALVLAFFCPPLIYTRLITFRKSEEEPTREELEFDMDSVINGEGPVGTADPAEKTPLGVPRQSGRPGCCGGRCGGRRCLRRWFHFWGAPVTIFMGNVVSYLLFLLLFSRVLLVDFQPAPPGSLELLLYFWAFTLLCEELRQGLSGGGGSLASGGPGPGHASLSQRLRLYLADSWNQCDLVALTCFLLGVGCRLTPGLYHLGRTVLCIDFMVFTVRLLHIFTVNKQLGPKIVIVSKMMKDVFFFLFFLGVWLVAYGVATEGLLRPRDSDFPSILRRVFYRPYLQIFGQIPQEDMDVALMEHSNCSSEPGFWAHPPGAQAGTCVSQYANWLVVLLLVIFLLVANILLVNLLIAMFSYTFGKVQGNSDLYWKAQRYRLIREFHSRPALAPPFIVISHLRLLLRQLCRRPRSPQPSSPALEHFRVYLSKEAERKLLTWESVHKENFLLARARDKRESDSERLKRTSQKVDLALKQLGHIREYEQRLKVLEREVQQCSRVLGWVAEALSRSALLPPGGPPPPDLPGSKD
Chain of native and recombinant β-cell KATP channels (Q09428 whole entry): as the sequence (Q09428 whole entry) above
Chain of native and recombinant β-cell KATP channels (Q14654 whole entry partner): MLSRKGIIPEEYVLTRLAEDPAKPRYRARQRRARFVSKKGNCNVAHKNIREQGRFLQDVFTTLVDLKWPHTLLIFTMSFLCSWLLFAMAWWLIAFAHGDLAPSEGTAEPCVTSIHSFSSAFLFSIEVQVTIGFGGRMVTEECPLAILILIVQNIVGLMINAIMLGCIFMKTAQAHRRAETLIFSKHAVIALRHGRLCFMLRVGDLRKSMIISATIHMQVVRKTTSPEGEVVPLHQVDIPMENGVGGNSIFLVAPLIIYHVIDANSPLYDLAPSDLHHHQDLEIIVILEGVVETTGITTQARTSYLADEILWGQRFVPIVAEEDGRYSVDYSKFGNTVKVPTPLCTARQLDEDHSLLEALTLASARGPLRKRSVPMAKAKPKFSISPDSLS

Regarding “5′-GGCCGAGTGGTTCTCGGT-3′ (DNA, backbone and methylation of C not given here; phosphorothioate at 4 distal bonds) [AS-ODN]”, the “blood in cord homogenates (effect)” value in data set [1] (setting [9]) is on record as “reduced”. Moreover, the PHN result in data set [1] was “significantly reduced”. Further, in data set [2], the “reduction in lesion volume” value is 3 fold. In data set [3] (setting [9]), the “performance in vertical exploration” value is on record as “significantly better performance” and the “performance on the inclined plane” value is recorded as “significantly better performance”. Moreover, the “SUR1 protein in gliotic capsule (Western blot)” value with SUR1 [4] (ODN infused into injury site) is given as “significant reduction”. Besides, the “astrocyte depolarization on ATP depletion by Na azide” value in the data set on SUR1 [4] (astrocytes from gliotic capsule) was “depolarized only slightly or not at all”. In addition, in the data set with SUR1 [5] (6 h post-SCI, ODN i.v. 1 mg/rat/24 h, vs controls), the “SUR1 immunolabeling of cord” value is “significantly less immunolabeling”. The “normal expression of SUR1 in dorsal horn cells” value in the data set on SUR1 [5] (post-SCI, ODN i.v.) is “did not affect”. Further, the “necrotic void beneath impact site” value in the data set with SUR1 [5] (post-SCI, ODN i.v., vs Scr-ODN) is given as “no necrotic void was evident”.

As a reminder, the pEC50 is the negative decadic logarithm of the EC50, by convention in mol/L. As for `Nc1ncnc2c1ncn2[C@@H]1O[C@H](COP(=O)(O)OP(=O)(O)OP(=O)(O)O)[C@@H](O)[C@H]1O` [ATP], in data set [6], the negative logarithm of the EC50 (pEC50) was 6.10.

As to `CC1=NS(=O)(=O)c2cc(Cl)ccc2N1` [diazoxide], the “current activated by diazoxide” value in data set [7] (endothelial cells cultured under hypoxic conditions) was “activated an ohmic current that reversed near 0 mV”; in data set [7] (endothelial cells cultured under normoxic conditions) it was “either had no effect or, in half of the cells, activated an outwardly rectifying current”.

For orientation: pIC50 means −log10 of the IC50, conventionally taken in molar units. As to `CCOc1cc(CC(=O)N[C@@H](CC(C)C)c2ccccc2N2CCCCC2)ccc1C(=O)O` [repaglinide], the “blood in cord homogenates” value in data set [1] (1 d post-SCI, repaglinide 200 ng/h s.q., 5-8 rats/group) worked out at 1.2 ± 0.1 µL. Also, the PHN result in data set [1] is recorded as “significantly reduced”. The “reduction in lesion volume” value in data set [2] came to 3 fold. Also, in data set [3] (repaglinide 200 ng/h s.q., 5-6 rats/group), the vertical exploration turned out to be 27 ± 6 s. Also, in data set [3] (setting [10]), the “inclined plane, head down” value was 47±3 degrees and the “inclined plane, head up” value is recorded as 62±2 degrees. In addition, the negative logarithm of the IC50 (pIC50) in data set [8] is 8.15 to 9.05.
